Reference: PubChem BioAssay AID623876 (Vanderbilt Specialized Chemistry Center, 2012)
Values joined by “and” are separate entries in the source; they are usually repeats but may differ in a detail not shown here. Equal values may be shown once. Active and inactive are the calls of the source.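 Rule for the calls: active = mean EC50 dose giving half the maximal effect below 30 µM; inactive = mean EC50 of 30 µM or more.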

Target: Metabotropic glutamate receptor 4 (Homo sapiens) (UniProt Q14833)
Assay: potentiation of human mGlu4 glutamate response – CHO Gqi5 cells, calcium mobilization, SAR follow-up (AID 623876)
Details: CHO hmGlu4/Gqi5 calcium mobilization, PAM at EC20 glutamate

Chain of Metabotropic glutamate receptor 4 (Homo sapiens) (Q14833 whole entry, looked up): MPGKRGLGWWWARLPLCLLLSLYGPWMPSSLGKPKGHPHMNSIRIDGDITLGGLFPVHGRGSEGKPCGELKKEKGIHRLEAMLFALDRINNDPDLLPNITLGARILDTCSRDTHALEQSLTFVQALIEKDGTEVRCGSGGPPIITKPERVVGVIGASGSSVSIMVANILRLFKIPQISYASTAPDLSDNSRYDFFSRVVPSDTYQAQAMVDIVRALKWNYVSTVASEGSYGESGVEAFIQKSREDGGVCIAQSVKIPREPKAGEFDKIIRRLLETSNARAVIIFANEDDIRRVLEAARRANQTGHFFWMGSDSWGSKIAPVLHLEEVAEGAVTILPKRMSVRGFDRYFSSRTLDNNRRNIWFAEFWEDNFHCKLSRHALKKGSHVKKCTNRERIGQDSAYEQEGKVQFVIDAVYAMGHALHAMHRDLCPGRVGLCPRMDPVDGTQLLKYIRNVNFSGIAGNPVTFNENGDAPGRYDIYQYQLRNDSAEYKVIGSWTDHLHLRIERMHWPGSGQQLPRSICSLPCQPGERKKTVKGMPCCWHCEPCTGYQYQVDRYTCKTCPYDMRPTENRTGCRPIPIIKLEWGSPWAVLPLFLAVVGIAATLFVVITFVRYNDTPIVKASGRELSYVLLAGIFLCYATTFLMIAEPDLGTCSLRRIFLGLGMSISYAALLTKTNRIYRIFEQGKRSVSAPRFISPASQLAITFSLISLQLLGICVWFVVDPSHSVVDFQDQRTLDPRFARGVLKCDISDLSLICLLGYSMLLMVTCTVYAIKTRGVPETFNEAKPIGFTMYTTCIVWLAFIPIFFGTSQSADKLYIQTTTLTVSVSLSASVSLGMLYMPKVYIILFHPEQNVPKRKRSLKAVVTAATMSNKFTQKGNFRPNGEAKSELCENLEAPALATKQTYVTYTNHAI

| Compound | EC50 |
| --- | --- |
| O=C(Nc1ccc2c(c1)C(=O)NC2=O)c1ccccn1 | 3.82 µM |
| COc1cc2nc(-c3ncc[nH]3)[nH]c2cc1Cl | > 10 µM |
| O=C(Nc1nc(C(F)(F)F)cs1)c1ccccn1 | > 10 µM |
| O=C(c1cscn1)N1CCOc2ccc(Cl)cc21 | > 10 µM |
| COc1cc(NC(=O)c2ccccc2F)ccc1Cl | > 10 µM |
| O=c1[nH]c(-c2ccccn2)nc2cc(Cl)ccc12 | > 10 µM |
| COc1cc2nc(-c3ccccn3)[nH]c2cc1Cl | > 10 µM |
| Fc1ccc2nc(-c3ccccn3)[nH]c2c1 | > 10 µM |
| O=C(Nc1ccc2cc[nH]c2c1)c1ccccn1 | > 10 µM |
| Clc1ccc2nc(-c3ccccn3)[nH]c2c1 | 4.68 µM |
| CC(C)N(C(=O)c1ccccn1)c1cccc(Cl)c1 | > 10 µM |
| O=C(Nc1ccc2cn[nH]c2c1)c1ccccn1 | 1.37 µM |

More lines, now with the values ahead:

| EC50 | Compound |
| --- | --- |
| 0.36 µM and 0.44 µM | FC(F)Oc1cccc(Nc2noc3cccnc23)c1 |
| 3.26 µM | COc1cc(Nc2noc3cccnc23)ccc1Cl |
| 0.6 µM | Clc1cccc(Nc2nc3ccccc3o2)c1 |
| 1.2 µM | O=C(Nc1cccc(Cl)c1)c1ccccn1 |
| > 10 µM | Clc1cccc(Nc2ccccn2)c1 |
| 7.22 µM | Clc1cccc(Nc2ncnc3cccnc23)c1 |
| 0.47 µM and 0.3 µM and 0.25 µM | Clc1cccc(Nc2noc3cccnc23)c1 |
| 1.19 µM | Fc1cccc(Nc2noc3cccnc23)c1 |
| > 10 µM | Clc1cccc(Nc2coc3cccnc23)c1 |

Same assay, conditions: CHO hmGlu4/Gqi5 calcium mobilization, PAM at EC20 glutamate; active compounds read high

| Compound | % glutamate max response |
| --- | --- |
| O=C(c1ccco1)N1CCOc2ccc(Cl)cc21 | inactive |
| COc1cc(OC)cc(-c2nc(-c3ccccn3)no2)c1 | inactive |
| COc1cccc(C(=O)N2CCOc3ccc(Cl)cc32)n1 | inactive |
| COc1cc(Nc2ncn3ccccc23)ccc1Cl | inactive |
| COc1cc2nc(-c3cnccn3)[nH]c2cc1Cl | inactive |
| O=C(c1cccc(Cl)n1)N1CCOc2ccc(Cl)cc21 | inactive |
| CCN(C(=O)c1ccccn1)c1cccc(Cl)c1 | inactive |
| c1cnc2c(Nc3ccc4c(c3)OCO4)ncnc2c1 | inactive |
| Clc1cccc(-c2nc(-c3ccccn3)no2)c1 | inactive |
| Brc1cccc(-c2nc(-c3ccccn3)no2)c1 | inactive |
| O=C(c1ccccn1)N1CCOc2c(Cl)cccc21 | inactive |
| COc1cc(Nc2nc3ccccc3o2)ccc1Cl | inactive |
| COc1cc(NS(=O)(=O)c2ccccn2)ccc1Cl | inactive |
| Cc1nsc(NC(=O)c2ccccn2)n1 | inactive |
| O=C(c1ccncn1)N1CCOc2ccc(Cl)cc21 | inactive |
| O=C1COc2cc(NC(=O)c3ccccn3)ccc2N1 | inactive |
| Cc1nc(NC(=O)c2ccccn2)nn1C | inactive |

| Compound | % glutamate max response |
| --- | --- |
| O=C(c1cccs1)N1CCOc2ccc(Cl)cc21 | inactive |
| Cn1ccc(NC(=O)c2ccccn2)n1 | inactive |
| Cn1cnc(NC(=O)c2ccccn2)n1 | inactive |
| COc1cc(NC(=O)c2ccccc2C)ccc1Cl | inactive |
| O=C(NCc1cccc(Cl)c1)c1ccccn1 | inactive |
| O=C(c1ccccn1)N1CCOc2ccc(Cl)cc21 | inactive |
| Cn1ccnc1NC(=O)c1ccccn1 | inactive |
| COc1cc(NC(=O)c2c(F)cccc2F)ccc1Cl | inactive |
| O=C1c2cccnc2C(=O)N1c1cccc(Cl)c1 | inactive |
| COc1cc(N2C(=O)c3ccccc3C2=O)ccc1Cl | inactive |
| FC(F)(F)c1cccc(-c2nc(-c3ccccn3)no2)c1 | inactive |
| COc1cc(NC(C)=O)ccc1Cl | inactive |
| O=C(NCCc1cccc(Cl)c1)c1ccccn1 | inactive |
| COc1cc(N2C(=O)c3cccnc3C2=O)ccc1Cl | inactive |
| O=C(c1cncs1)N1CCOc2ccc(Cl)cc21 | inactive |
| O=C(c1ccccn1)N(Cc1ccccn1)c1cccc(Cl)c1 | inactive |
| COc1cc(N2Cc3ccccc3C2=O)ccc1Cl | inactive |

Further lines, results first:

| % glutamate max response | Compound |
| --- | --- |
| inactive | Fc1ccc(Nc2ncnc3cccnc23)cc1Cl |
| inactive | Fc1ccc(Nc2ncnc3cccnc23)cc1F |
| inactive | Clc1cccc(Nc2nccc3cccnc23)c1 |
| inactive | Clc1cccc(Nc2nccc3ccccc23)c1 |
| inactive | Fc1cccc(Nc2ncnc3cccnc23)c1 |
| inactive | c1ccc(Nc2ncnc3cccnc23)cc1 |
| inactive | Clc1cccc(Nc2cccc3cccnc23)c1 |
| inactive | COc1ccc(Nc2ncnc3cccnc23)cc1Cl |
| inactive | COc1cc(Nc2cccc3cccnc23)ccc1Cl |
| inactive | Cc1cc(Nc2ncnc3cccnc23)ccc1Cl |
| inactive | c1ccc(Nc2coc3cccnc23)cc1 |
| inactive | COc1cc(Nc2nccc3cccnc23)ccc1Cl |
| inactive | COc1cc(Nc2nccc3ccccc23)ccc1Cl |
| inactive | Clc1cccc(-c2n[nH]c(-c3ccccn3)n2)c1 |
